Reference: patent US20040039042A1, “Method of transdermal drug delivery” (priority 2002, published 2004)

What was measured:
[1] = Powdered drug mixed with Ocean® and rubbed into the skin over arthritic joints of patients; format: in vivo, human; details: for side effects normally encountered when taking the drug: patients unable to continue the drugs because of GI toxicity, transdermal application in Ocean®
Source text: The present invention is a method for delivering drugs transdermally, especially insoluble drugs. The powdered form of a drug, such as that contained in the capsules of Vioxx® and Celebrex®, was mixed with Ocean® to form a mixture. The mixture was then rubbed into the skin at the needed location, for example, an arthritic joint, by volunteer subjects suffering from arthritis in different joints. The Vioxx® or Celebrex® suspension in Ocean® then penetrated the outer layer of the skin, traveled through the stratum corneum, dermis, and hypodermis, and entered the target tissue. […] Therefore, the present invention provides a method of delivery for NSAIDs, such as Vioxx® and Celebrex®, that can inhibit COX-2 at the inflammation site, without ever entering the GI tract, relieving the patient of any GI toxicity that may be caused by the drug.
In summary, the method of this patent for drug delivery has been tried by a few patients with severe arthritis. These patients were unable to continue using either Vioxx® or Celebrex® because of the severe GI toxicity those drugs caused. The patients opened the capsules of the drugs, mixed the powdered drug with Ocean®, and applied the solution to the skin of the arthritic area.

[2] = cited from earlier work
[3] = Application of Carafate® to root canal wounds or dry sockets in dental patients; format: in vivo, human; details: applied to root canal wounds or dry sockets
Source text: Wounds in the mouth are especially prone to infection because of the dark, moist environment, the availability of energy sources from the food that is eaten, and the large numbers of microbes in the mouth. After a root canal or removal of a tooth, a patient is especially prone to infection since the open wound is an idea location for bacteria to settle, and because such a wound is hard to clean.

Compound	side effects normally encountered when taking the drug [1]	solubility in aqueous media ([2]; aqueous media)	relief from arthritis ([1]; patients with severe arthritis, powdered drug from capsules mixed with Ocean®, applied to skin of the arthritic area)	time after application until pain and symptoms are reduced ([1]; suspension in Ocean® rubbed into the skin closest to the affected arthritic joint, volunteer subjects)	solubility in acetone ([2]; acetone)	solubility in ethanol ([2]; ethanol)	solubility in isopropyl acetate ([2]; isopropyl acetate)	solubility in methanol ([2]; methanol)	solubility in octanol ([2]; octanol)	solubility in water ([2]; water)	infection of the wound area ([3]; a number of dental patients)	healing process ([3]; dental patients)	pain and swelling in wounds ([3]; dental patients)
Cc1ccc(-c2cc(C(F)(F)F)nn2-c2ccc(S(N)(=O)=O)cc2)cc1 [Celebrex®, 4-[5-(4-methylphenyl)-3-(triflouromethyl)-1 H-pyrazol-1-yl] benzenesulfonamide]	without the side effects	low solubility											
CS(=O)(=O)c1ccc(C2=C(c3ccccc3)C(=O)OC2)cc1 [Vioxx®, 4-[4-(methyl-sulfonyl)phenyl]-3-phenyl-2(5H)-furanone]	without the side effects		relief from their arthritis	Within minutes	sparingly soluble	very slightly soluble	slightly soluble	slightly soluble	practically insoluble	insoluble			
α-D-glucopyranoside, β-D-frucofuranosyl-, octakis-(hydrogen sulfate), aluminum complex [Carafate®]											inhibits infection	hastens the healing process	reduce pain and swelling
